Numbers after ± are expanded uncertainties.
Assay: molar heat capacity at saturation pressure
Settings: Crystal 3, Small (less than 1 g) adiabatic calorimetry

NC12CC3CC(CC(C3)C1)C2 [tricyclo(3.3.1.1:3,7)decan-1-amine]
Settings | molar heat capacity [J/K/mol]
5.371 K | 0.5825 ± 0.031
5.674 K | 0.6834 ± 0.033
5.933 K | 0.7778 ± 0.035
6.225 K | 0.9013 ± 0.037
6.555 K | 1.05 ± 0.039
6.892 K | 1.221 ± 0.042
7.234 K | 1.413 ± 0.046
7.582 K | 1.615 ± 0.049
7.934 K | 1.847 ± 0.053
8.29 K | 2.095 ± 0.057
8.65 K | 2.364 ± 0.061
9.012 K | 2.653 ± 0.066
9.378 K | 2.953 ± 0.07
9.748 K | 3.269 ± 0.075
10.12 K | 3.61 ± 0.08
10.59 K | 4.072 ± 0.086
11.18 K | 4.667 ± 0.095
11.76 K | 5.291 ± 0.1
12.35 K | 5.952 ± 0.11
12.95 K | 6.634 ± 0.12
13.55 K | 7.353 ± 0.13
14.16 K | 8.092 ± 0.14
14.78 K | 8.863 ± 0.15
15.5 K | 9.794 ± 0.16
16.34 K | 10.89 ± 0.17
17.18 K | 12.01 ± 0.18
18.02 K | 13.1 ± 0.19
18.87 K | 14.19 ± 0.2
19.72 K | 15.29 ± 0.21
20.86 K | 16.74 ± 0.22
22.27 K | 18.51 ± 0.22
23.71 K | 20.25 ± 0.23
25.14 K | 21.91 ± 0.24
26.57 K | 23.5 ± 0.24
28.24 K | 25.24 ± 0.24
29.96 K | 26.91 ± 0.23
31.58 K | 28.39 ± 0.24
33.36 K | 29.89 ± 0.25
35.14 K | 31.32 ± 0.26
36.93 K | 32.63 ± 0.27
38.72 K | 33.88 ± 0.27
40.51 K | 35.04 ± 0.27
42.4 K | 36.18 ± 0.28
44.38 K | 37.34 ± 0.29
46.37 K | 38.43 ± 0.29
48.36 K | 39.47 ± 0.3
50.35 K | 40.45 ± 0.3
52.35 K | 41.44 ± 0.31
54.34 K | 42.38 ± 0.32
56.34 K | 43.3 ± 0.32
58.35 K | 44.2 ± 0.32
60.36 K | 45.16 ± 0.32
62.36 K | 46.1 ± 0.33
64.37 K | 46.99 ± 0.33
66.38 K | 47.92 ± 0.34
68.39 K | 48.83 ± 0.34
70.41 K | 49.75 ± 0.35
72.42 K | 50.71 ± 0.36
74.44 K | 51.65 ± 0.36
76.46 K | 52.68 ± 0.37
78.49 K | 53.68 ± 0.37
78.62 K | 53.84 ± 0.37
80.52 K | 54.78 ± 0.37
80.69 K | 54.93 ± 0.37
82.5 K | 55.83 ± 0.38
82.55 K | 55.82 ± 0.38
84.31 K | 56.77 ± 0.38
84.59 K | 56.97 ± 0.38
86.12 K | 57.74 ± 0.39
88.91 K | 59.25 ± 0.4
91 K | 60.41 ± 0.44
92.82 K | 61.47 ± 0.45
94.65 K | 62.47 ± 0.45
96.48 K | 63.45 ± 0.46
98.3 K | 64.46 ± 0.46
100.14 K | 65.47 ± 0.47
101.97 K | 66.49 ± 0.47
103.81 K | 67.54 ± 0.47
105.65 K | 68.56 ± 0.47
107.49 K | 69.56 ± 0.48
109.33 K | 70.65 ± 0.48
111.18 K | 71.75 ± 0.49
113.03 K | 72.83 ± 0.49
114.88 K | 73.92 ± 0.5
116.73 K | 75.05 ± 0.5
118.59 K | 76.14 ± 0.51
120.45 K | 77.29 ± 0.51
122.31 K | 78.44 ± 0.52
124.17 K | 79.61 ± 0.52
126.03 K | 80.8 ± 0.52
127.9 K | 82.02 ± 0.53
129.77 K | 83.23 ± 0.5
131.64 K | 84.39 ± 0.5
133.51 K | 85.64 ± 0.58
135.38 K | 86.8 ± 0.58
137.26 K | 88.05 ± 0.58
139.13 K | 89.21 ± 0.58
141.01 K | 90.54 ± 0.58
142.89 K | 91.79 ± 0.58
144.78 K | 93.04 ± 0.58
146.66 K | 94.37 ± 0.58
148.56 K | 95.62 ± 0.58
150.44 K | 96.95 ± 0.58
150.6 K | 97.03 ± 0.58
152.33 K | 98.28 ± 0.58
153.55 K | 99.11 ± 0.58
154.22 K | 99.61 ± 0.58
156.12 K | 100.94 ± 0.58
156.34 K | 101.19 ± 0.58
158.01 K | 102.27 ± 0.58
159.13 K | 103.18 ± 0.58
159.9 K | 103.68 ± 0.58
161.8 K | 105.09 ± 0.58
161.91 K | 105.26 ± 0.58
163.69 K | 106.59 ± 0.67
164.48 K | 107.17 ± 0.67
165.59 K | 108 ± 0.67
166.66 K | 108.92 ± 0.67
167.48 K | 109.5 ± 0.67
168.73 K | 110.58 ± 0.67
169.38 K | 111 ± 0.67
170.79 K | 112.25 ± 0.67
171.28 K | 112.58 ± 0.67
172.85 K | 113.91 ± 0.67
173.18 K | 114.16 ± 0.67
174.91 K | 115.65 ± 0.67
175.08 K | 115.74 ± 0.67
176.96 K | 117.4 ± 0.67
176.98 K | 117.32 ± 0.67
178.89 K | 119.06 ± 0.67
179.01 K | 119.23 ± 0.67
180.8 K | 120.73 ± 0.67
181.05 K | 120.98 ± 0.67
182.71 K | 122.39 ± 0.67
183.09 K | 122.8 ± 0.67
184.61 K | 124.05 ± 0.67
185.12 K | 124.63 ± 0.67
186.52 K | 125.8 ± 0.67
187.15 K | 126.46 ± 0.75
188.43 K | 127.63 ± 0.75
189.18 K | 128.38 ± 0.75
190.33 K | 129.46 ± 0.75
191.2 K | 130.37 ± 0.75
192.24 K | 131.37 ± 0.75
193.21 K | 132.53 ± 0.75
194.15 K | 133.36 ± 0.75
195.22 K | 134.61 ± 0.75

Reference: the NIST ThermoML archive (doi:10.1016/j.jct.2007.08.002)
